Results on eight compounds are retold here after US20230339889A1, “DERIVATIVES OF 2-OXO-N-(4-(PYRIMIDIN-4-YLOXY/THIO)PHENYL)-1,2-DIHYDROPYRIDINE-3-CARBOXAMIDE FOR USE AS PROTEIN KINASE INHIBITORS FOR THERAPY” (AUCENTRA THERAPEUTICS PTY LTD, priority 2020, published 2023).

Each structure is given as a SMILES string.

The target of test [1] is T1, AXL (Homo sapiens, UniProt P30530).
T1 construct: purchased Eurofins Discovery (Kinase Profiler service)
T1 sequence (P30530 26-894): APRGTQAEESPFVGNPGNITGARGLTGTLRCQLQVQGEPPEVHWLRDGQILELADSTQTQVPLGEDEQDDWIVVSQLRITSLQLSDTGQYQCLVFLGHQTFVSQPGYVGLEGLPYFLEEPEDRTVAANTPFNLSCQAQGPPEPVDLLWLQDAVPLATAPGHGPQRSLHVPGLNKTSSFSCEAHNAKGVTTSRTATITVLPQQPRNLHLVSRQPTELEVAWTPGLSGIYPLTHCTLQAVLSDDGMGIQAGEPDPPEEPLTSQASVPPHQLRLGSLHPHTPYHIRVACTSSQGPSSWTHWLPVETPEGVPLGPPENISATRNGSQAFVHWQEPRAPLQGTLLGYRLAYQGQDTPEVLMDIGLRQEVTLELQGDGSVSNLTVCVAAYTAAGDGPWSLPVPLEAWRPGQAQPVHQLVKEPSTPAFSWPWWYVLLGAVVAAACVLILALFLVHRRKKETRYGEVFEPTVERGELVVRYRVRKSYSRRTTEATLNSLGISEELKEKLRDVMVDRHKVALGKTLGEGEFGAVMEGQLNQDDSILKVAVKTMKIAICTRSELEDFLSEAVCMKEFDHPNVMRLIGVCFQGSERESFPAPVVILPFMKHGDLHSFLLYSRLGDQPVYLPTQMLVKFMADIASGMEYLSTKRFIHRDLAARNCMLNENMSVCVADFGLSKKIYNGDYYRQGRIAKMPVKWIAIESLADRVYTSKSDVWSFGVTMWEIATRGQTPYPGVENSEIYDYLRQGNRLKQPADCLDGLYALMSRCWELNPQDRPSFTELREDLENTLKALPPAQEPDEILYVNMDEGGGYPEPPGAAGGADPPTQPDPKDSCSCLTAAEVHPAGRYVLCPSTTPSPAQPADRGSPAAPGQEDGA
As to the kind of experiment: Filter-binding radiometric kinase activity assay (KinaseProfiler, Eurofins). Format: biochemical. The following applies: 1 µM compound; read-out: % Residual enzymatic activity at 1 µM AXL. The method, then:
(§1) Filter-binding radiometric kinase activity assay (Kinase Profiler™) from Eurofins Discovery was used to determine the % of inhibition and/or IC50 values. […] The reaction is initiated by the addition of the Mg/ATP mixture. After incubation for 40 minutes at room temperature, the reaction is stopped by the addition of phosphoric acid to a concentration of 0.5%. 10 µL of the reaction is then spotted onto a P30 filter mat and washed four times for 4 minutes in 0.425% phosphoric acid and once in methanol prior to drying and scintillation counting. The IC50 values were derived by fitting a sigmoidal dose-response curve to a plot of assay readout over inhibitor concentration. All fits were computed with the GraphPad Prism Software (San Diego, CA, United States of America). Ki values were derived from IC5o values using Cheng Prusoff equation (Cheng Y et al., Biochem Pharmacol 22(23):3099-3108, 1973).

Test [2] addresses T2, MET (Homo sapiens, UniProt P08581).
T2 construct: purchased Eurofins Discovery (Kinase Profiler service)
The description is as above. The following applies: 1 µM compound; read-out: % Residual enzymatic activity at 1 µM MET. It counts as biochemical. The method, then: as §1

For test [3], the target named is T3, Mer (Homo sapiens, UniProt Q12866).
T3 construct: purchased Eurofins Discovery (Kinase Profiler service)
T3 sequence (Q12866 21-999): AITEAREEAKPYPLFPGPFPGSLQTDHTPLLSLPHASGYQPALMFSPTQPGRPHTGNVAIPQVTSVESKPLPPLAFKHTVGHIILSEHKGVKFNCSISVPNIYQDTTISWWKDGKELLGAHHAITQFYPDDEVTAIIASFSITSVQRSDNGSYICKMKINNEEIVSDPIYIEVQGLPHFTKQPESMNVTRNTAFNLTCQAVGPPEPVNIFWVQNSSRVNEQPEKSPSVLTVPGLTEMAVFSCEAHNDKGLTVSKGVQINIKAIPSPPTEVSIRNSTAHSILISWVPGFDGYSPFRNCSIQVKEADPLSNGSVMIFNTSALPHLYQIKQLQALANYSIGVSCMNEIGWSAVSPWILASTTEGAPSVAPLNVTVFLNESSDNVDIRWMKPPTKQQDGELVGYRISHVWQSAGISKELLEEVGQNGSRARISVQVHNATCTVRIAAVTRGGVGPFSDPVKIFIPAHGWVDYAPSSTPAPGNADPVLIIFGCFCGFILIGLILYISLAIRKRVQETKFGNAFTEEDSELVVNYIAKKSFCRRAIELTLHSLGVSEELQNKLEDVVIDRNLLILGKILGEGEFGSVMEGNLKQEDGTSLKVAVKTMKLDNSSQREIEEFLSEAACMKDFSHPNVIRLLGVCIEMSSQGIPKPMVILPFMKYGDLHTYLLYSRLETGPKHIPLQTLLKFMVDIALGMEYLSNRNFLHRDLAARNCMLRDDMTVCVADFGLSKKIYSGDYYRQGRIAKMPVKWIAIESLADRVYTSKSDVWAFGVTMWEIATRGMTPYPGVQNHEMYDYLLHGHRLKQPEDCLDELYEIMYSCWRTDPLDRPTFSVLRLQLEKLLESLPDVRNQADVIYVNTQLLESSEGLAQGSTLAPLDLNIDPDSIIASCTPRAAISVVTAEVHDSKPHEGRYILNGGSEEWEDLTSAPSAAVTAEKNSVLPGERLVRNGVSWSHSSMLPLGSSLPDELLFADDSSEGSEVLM
Described as above. The following applies: 1 µM compound; read-out: % Residual enzymatic activity at 1 µM Mer. Format: biochemical. The method, then:
as §1

For test [4], the target named is T4, TYRO3 (Homo sapiens, UniProt Q06418).
T4 construct: purchased Eurofins Discovery (Kinase Profiler service)
T4 sequence (Q06418 41-890): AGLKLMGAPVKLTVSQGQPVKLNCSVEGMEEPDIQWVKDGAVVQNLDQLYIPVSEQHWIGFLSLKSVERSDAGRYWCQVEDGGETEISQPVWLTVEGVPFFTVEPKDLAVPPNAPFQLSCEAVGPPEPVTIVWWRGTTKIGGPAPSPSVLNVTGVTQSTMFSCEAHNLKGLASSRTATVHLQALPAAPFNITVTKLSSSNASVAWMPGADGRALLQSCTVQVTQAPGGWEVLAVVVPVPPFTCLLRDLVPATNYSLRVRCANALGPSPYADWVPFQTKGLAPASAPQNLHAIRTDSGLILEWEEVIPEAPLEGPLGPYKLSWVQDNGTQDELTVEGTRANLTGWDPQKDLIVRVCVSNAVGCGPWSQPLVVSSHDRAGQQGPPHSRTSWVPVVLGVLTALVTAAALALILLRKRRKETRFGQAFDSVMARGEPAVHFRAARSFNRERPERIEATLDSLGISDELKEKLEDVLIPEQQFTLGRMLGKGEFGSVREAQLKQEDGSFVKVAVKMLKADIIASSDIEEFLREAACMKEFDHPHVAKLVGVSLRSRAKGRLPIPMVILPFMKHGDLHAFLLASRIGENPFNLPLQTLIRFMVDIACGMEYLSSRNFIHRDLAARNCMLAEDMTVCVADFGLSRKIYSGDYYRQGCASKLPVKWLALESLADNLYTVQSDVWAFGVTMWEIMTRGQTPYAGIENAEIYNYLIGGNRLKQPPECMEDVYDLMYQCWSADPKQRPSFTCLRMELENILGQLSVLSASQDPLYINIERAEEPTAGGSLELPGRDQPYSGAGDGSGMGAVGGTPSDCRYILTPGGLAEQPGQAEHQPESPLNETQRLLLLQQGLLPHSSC
Described as above. The following applies: 1 µM compound; read-out: % Residual enzymatic activity at 1 µM TYRO3. It counts as biochemical. The method, then: as §1

Test [5] concerns FLT3-ITD. In words: ADP Glo Kinase assay. Format: biochemical. The following applies: 1 µM compound. The method, then: (§2) Inhibition of CDKs and FLT3 were determined using ADP Glo Kinase assays, as previously described in International Patent Publication No WO 2017/020065.
(In general: ADP-Glo turns the ADP formed in a reaction into a luminescent signal.)

The test system of test [6] is MV4-11. In words: Proliferation assay (MTT, leukaemia cancer cell line). Format: cell-based. The conditions noted are these: Homo sapiens; 1 µM compound, MV4-11 cells. The text has this:
Compounds from Example 1 were subjected to standard resazurin and MTT assays on solid tumour and leukaemia cancer cell lines, respectively, as previously reported (Wang S et al., J Med Chem 47:1662-1675, 2004 and Diab S et al., CheMedChem 9:962-972, 2014).

For test [7], the target named is CDK2E (Homo sapiens, UniProt P24941). In words: ADP Glo Kinase assay. It counts as biochemical. The conditions noted are these: 1 µM compound; read-out: % Residual enzymatic activity at 1 µM CDK2E. The method, then:
as §2

T2 sequence (P08581 25-1390): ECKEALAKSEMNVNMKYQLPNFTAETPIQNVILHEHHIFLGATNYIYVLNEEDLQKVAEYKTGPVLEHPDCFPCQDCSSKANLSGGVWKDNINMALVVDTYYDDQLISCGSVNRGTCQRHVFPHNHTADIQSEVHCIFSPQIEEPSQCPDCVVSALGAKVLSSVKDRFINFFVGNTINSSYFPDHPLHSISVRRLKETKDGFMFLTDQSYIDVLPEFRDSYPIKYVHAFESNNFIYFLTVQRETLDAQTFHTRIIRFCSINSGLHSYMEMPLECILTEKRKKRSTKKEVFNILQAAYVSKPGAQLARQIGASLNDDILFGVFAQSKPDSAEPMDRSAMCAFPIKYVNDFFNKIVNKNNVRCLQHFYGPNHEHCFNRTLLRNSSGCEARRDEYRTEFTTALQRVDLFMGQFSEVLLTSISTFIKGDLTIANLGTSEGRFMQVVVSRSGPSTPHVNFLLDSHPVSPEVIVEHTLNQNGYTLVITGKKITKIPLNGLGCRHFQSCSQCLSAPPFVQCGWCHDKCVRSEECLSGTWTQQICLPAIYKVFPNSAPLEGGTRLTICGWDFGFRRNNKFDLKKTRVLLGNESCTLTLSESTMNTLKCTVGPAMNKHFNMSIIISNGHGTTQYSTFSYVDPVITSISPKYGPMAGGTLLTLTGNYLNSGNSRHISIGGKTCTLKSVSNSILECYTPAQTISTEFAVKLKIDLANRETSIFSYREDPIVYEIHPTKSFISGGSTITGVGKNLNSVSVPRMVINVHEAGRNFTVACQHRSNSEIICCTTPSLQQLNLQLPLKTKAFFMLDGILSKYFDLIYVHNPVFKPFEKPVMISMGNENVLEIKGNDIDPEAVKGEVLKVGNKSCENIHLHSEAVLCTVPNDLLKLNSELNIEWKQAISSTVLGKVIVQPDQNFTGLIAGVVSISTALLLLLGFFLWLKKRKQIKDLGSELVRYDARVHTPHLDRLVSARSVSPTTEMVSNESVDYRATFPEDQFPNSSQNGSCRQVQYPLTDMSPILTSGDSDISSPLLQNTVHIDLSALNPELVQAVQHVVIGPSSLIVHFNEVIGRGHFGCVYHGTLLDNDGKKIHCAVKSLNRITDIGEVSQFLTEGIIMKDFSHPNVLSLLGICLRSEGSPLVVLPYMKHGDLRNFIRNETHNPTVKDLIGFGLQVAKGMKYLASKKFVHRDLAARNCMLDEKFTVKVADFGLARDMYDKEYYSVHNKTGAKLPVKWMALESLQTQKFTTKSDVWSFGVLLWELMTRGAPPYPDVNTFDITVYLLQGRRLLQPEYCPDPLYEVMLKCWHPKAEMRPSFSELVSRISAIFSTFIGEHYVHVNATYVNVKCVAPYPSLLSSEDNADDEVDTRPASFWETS

Take `Nc1ncnc(Oc2ccc(NC(=O)c3cccn(-c4ccc(F)cc4)c3=O)cc2Cl)c1F` [Cmpd 22, N-(4-((6-amino-5-fluoropyrimidin-4-yl)oxy)-3-chlorophenyl)-1-(4-fluorophenyl)-2-oxo-1,2-dihydropyridine-3-carboxamide]: the remaining activity at 1 µM in test [1] was 57%; in test [2] it was 93%; in test [3] it was 89%; in test [4], 63%. Besides, the “% Residual enzymatic activity at 1 µM FLT3-ITD” value (“% Residual enzymatic activity” below) in test [5] amounted to 43%. The compound further yielded an activity at 1 µM in test [6] of 3%.

Regarding `Nc1ncnc(Oc2ccc(NC(=O)c3cccn(-c4ccc(Cl)cc4)c3=O)cc2F)c1F` [Cmpd 34, N-(4-((6-amino-5-fluoropyrimidin-4-yl)oxy)-3-fluorophenyl)-1-(4-chlorophenyl)-2-oxo-1,2-dihydropyridine-3-carboxamide], the remaining activity at 1 µM was 50% in test [1]; 91% in test [2]; 103% in test [3]; 69% in test [4]; 97% in test [7]. Further, the activity at 1 µM in test [6] is 3%.

For `Nc1ncnc(Oc2ccc(NC(=O)c3cccn(-c4ccc(F)cc4)c3=O)c(Cl)c2)c1Cl` [Cmpd 37, N-(4-((6-amino-5-chloropyrimidin-4-yl)oxy)-2-chlorophenyl)-1-(4-fluorophenyl)-2-oxo-1,2-dihydropyridine-3-carboxamide], the remaining activity at 1 µM came to 78% in test [1]; 88% in test [2]; 87% in test [3]; 39% in test [4]; 96% in test [7]. Also, the activity at 1 µM in test [6] is 48%.

Regarding `Nc1ncnc(Oc2ccc(NC(=O)c3cccn(-c4ccc(OC(F)(F)F)cc4)c3=O)cc2F)c1F` [Cmpd 8, N-(4-((6-amino-5-fluoropyrimidin-4-yl)oxy)-3-fluorophenyl)-2-oxo-1-(4-(trifluoromethoxy)phenyl)-1,2-dihydropyridine-3-carboxamide], the remaining activity at 1 µM in test [1] is 112%; in test [2] it was 85%; in test [3], 100%; in test [4], 111%. The “% Residual enzymatic activity” value in test [5] turned out to be 91%.

Turning to `Nc1ncnc(Sc2ccc(NC(=O)c3cccn(-c4ccc(F)cc4)c3=O)cc2F)c1F` [Cmpd 19, N-(4-((6-amino-5-fluoropyrimidin-4-yl)thio)-3-fluorophenyl)-1-(4-fluorophenyl)-2-oxo-1,2-dihydropyridine-3-carboxamide], the remaining activity at 1 µM is 84% in test [1]; 78% in test [2]; 99% in test [3]; 89% in test [4]; 93% in test [7]. The activity at 1 µM in test [6] is 6%.

For the compound `Nc1ncnc(Sc2ccc(NC(=O)c3cccn(-c4ccc(F)cc4)c3=O)cc2F)c1Cl` [Cmpd 17, N-(4-((6-amino-5-chloropyrimidin-4-yl)thio)-3-fluorophenyl)-1-(4-fluorophenyl)-2-oxo-1,2-dihydropyridine-3-carboxamide], the remaining activity at 1 µM came out at 55% in test [1]; 65% in test [2]; 81% in test [3]; 52% in test [4]; 101% in test [7]. This compound also had an activity at 1 µM in test [6] of 4%.

Regarding `Nc1ncnc(Oc2ccc(NC(=O)c3cccn(-c4ccc(F)cc4)c3=O)c(Cl)c2)c1F` [Cmpd 38, N-(4-((6-amino-5-fluoropyrimidin-4-yl)oxy)-2-chlorophenyl)-1-(4-fluorophenyl)-2-oxo-1,2-dihydropyridine-3-carboxamide], the remaining activity at 1 µM in test [1] amounted to 69%; in test [2], 68%; in test [3], 92%; in test [4] it was 50%; in test [7] it was 90%. In addition, the activity at 1 µM in test [6] was 43%.

As to `Nc1ncnc(Oc2ccc(NC(=O)c3cccn(-c4ccc(C(F)(F)F)cc4)c3=O)cc2F)c1F` [Cmpd 9, N-(4-((6-amino-5-fluoropyrimidin-4-yl)oxy)-3-fluorophenyl)-2-oxo-1-(4-(trifluoromethyl)phenyl)-1,2-dihydropyridine-3-carboxamide], the remaining activity at 1 µM turned out to be 105% in test [1], 64% in test [2], 85% in test [3] and 106% in test [4]. Moreover, the “% Residual enzymatic activity” value in test [5] is 88%.
